The source made the active and inactive calls. No rule for the calls is given here.
Test system: rodent carcinogenicity bioassays, tumor incidence
Assay: CCRIS carcinogenicity studies
In short: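 NCI-built, expert-reviewed records of carcinogenicity and related test outcomes (mutagenicity, tumor promotion/inhibition) compiled from published and report sources, historical span 1985-2011, not updated.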

`CC(C)C(C(=O)OC(C#N)c1cccc(Oc2ccccc2)c1)c1ccc(Cl)cc1` (configuration not stated) was tested, and the carcinogen call (Species: MOUSE, Strain/Sex: B6C3F1/FEMALE, Route: ORAL, Dose: 0, 10, 50, 250, 1250 PPM IN THE DIET FOR 2 YR (STUDY DURATION: 2 YR), Dose: 0, 10, 50, 250, 1250 PPM IN THE DIET FOR 2 YR (STUDY DURATION: 2 YR)) was “inactive; negative”, the carcinogen call (Species: MOUSE, Strain/Sex: B6C3F1/MALE, Route: ORAL, Dose: 0, 10, 50, 250, 1250 PPM IN THE DIET FOR 2 YR (STUDY DURATION: 2 YR), Dose: 0, 10, 50, 250, 1250 PPM IN THE DIET FOR 2 YR (STUDY DURATION: 2 YR)) was “inactive; negative” and the carcinogen call (Species: MOUSE, Strain/Sex: C57BL/FEMALE, Route: INTRAGASTRIC, Dose: 0, 40, 80 MG/KG IN ARACHIS OIL 5/WK FOR 104 WK (STUDY DURATION: 120 WK), Dose: 0, 40, 80 MG/KG IN ARACHIS OIL 5/WK FOR 104 WK (STUDY DURATION: 120 WK)) was “inactive; negative”. The carcinogen call (Species: MOUSE, Strain/Sex: C57BL/MALE, Route: INTRAGASTRIC, Dose: 0, 40, 80 MG/KG IN ARACHIS OIL 5/WK FOR 104 WK (STUDY DURATION: 120 WK), Dose: 0, 40, 80 MG/KG IN ARACHIS OIL 5/WK FOR 104 WK (STUDY DURATION: 120 WK)) was “inactive; negative”, the carcinogen call (Species: RAT, Strain/Sex: SPRAGUE-DAWLEY/MALE,FEMALE, Route: ORAL) was “inactive; negative” and the carcinogen call (Species: Rat, Strain/Sex: Sprague-Dawley/Male and female (93/Experimental group and 183/Control group), Route: Oral, Dose: 0, 1, 5, 25, 250 ppm in diet for 2 yr, study duration 2 yr, Dose: 0, 1, 5, 25, 250 ppm in diet for 2 yr, study duration 2 yr) was “inactive; negative”.
With `CCOC(=O)CC(SP(=O)(OC)OC)C(=O)OCC` (configuration not stated) the carcinogen call (Species: MOUSE, Strain/Sex: B6C3F1/FEMALE, Route: ORAL, Dose: 0, 500, 1000 PPM IN DIET, Dose: 0, 500, 1000 PPM IN DIET) was “inactive; negative”, the carcinogen call (Species: MOUSE, Strain/Sex: B6C3F1/MALE, Route: ORAL, Dose: 0, 500, 1000 PPM IN DIET, Dose: 0, 500, 1000 PPM IN DIET) was “inactive; negative” and the carcinogen call (Species: RAT, Strain/Sex: F344/FEMALE, Route: ORAL, Dose: 0, 500, 1000 PPM IN DIET, Dose: 0, 500, 1000 PPM IN DIET) was “inactive; negative”. For the same compound, the carcinogen call (Species: RAT, Strain/Sex: F344/MALE, Route: ORAL, Dose: 0, 500, 1000 PPM IN DIET, Dose: 0, 500, 1000 PPM IN DIET) was “inactive; negative”.
`[O-][Cl+]O` was tested, and the carcinogen call (Species: RAT, Strain/Sex: F344/FEMALE, Route: ORAL, Dose: 0, 0.03, 0.06% IN DRINKING WATER FOR 85 WK (STUDY DURATION: 85 WK), Dose: 0, 0.03, 0.06% IN DRINKING WATER FOR 85 WK (STUDY DURATION: 85 WK)) was “inactive; negative” and the carcinogen call (Species: RAT, Strain/Sex: F344/MALE, Route: ORAL, Dose: 0, 0.03, 0.06% IN DRINKING WATER FOR 85 WK (STUDY DURATION: 85 WK), Dose: 0, 0.03, 0.06% IN DRINKING WATER FOR 85 WK (STUDY DURATION: 85 WK)) was “inactive; negative”.
For `C#C[C@]1(OC(C)=O)CC[C@H]2[C@@H]3CCC4=C[C@@H](OC(C)=O)CC[C@@H]4[C@H]3CC[C@@]21C`, the carcinogen call (Species: MOUSE, Route: ORAL, Tumor Site: Type of Lesion: MAMMARY GLAND) was “active; positive” and the carcinogen call (Species: RAT, Route: ORAL, Tumor Site: Type of Lesion: MAMMARY GLAND) was “active; positive”.
`CC1(C)[C@@H](O[C@H]2O[C@H](C(=O)O)[C@@H](O)[C@H](O)[C@H]2O[C@@H]2O[C@H](C(=O)O)[C@@H](O)[C@H](O)[C@H]2O)CC[C@]2(C)[C@H]3C(=O)C=C4[C@@H]5C[C@@](C)(C(=O)O)CC[C@]5(C)CC[C@@]4(C)[C@]3(C)CC[C@@H]12` was tested, and the carcinogen call (Species: MOUSE, Strain/Sex: B6C3F1/FEMALE, Route: ORAL, Dose: 0, 0.08, 0.15, 0.3% IN DRINKING WATER FOR 96 WK (STUDY DURATION: 110 WK), Dose: 0, 0.08, 0.15, 0.3% IN DRINKING WATER FOR 96 WK (STUDY DURATION: 110 WK)) was “inactive; negative” and the carcinogen call (Species: MOUSE, Strain/Sex: B6C3F1/MALE, Route: ORAL, Dose: 0, 0.04, 0.08, 0.15% IN DRINKING WATER FOR 96 WK (STUDY DURATION: 110 WK), Dose: 0, 0.04, 0.08, 0.15% IN DRINKING WATER FOR 96 WK (STUDY DURATION: 110 WK)) was “inactive; negative”.
`CC(=O)Nc1ccc(N=Nc2cc(C)ccc2O)cc1` was tested, and the carcinogen call (Species: MOUSE, Strain/Sex: B6C3F1/FEMALE, Route: ORAL, Dose: 0, 2500, 5000 PPM IN DIET, Dose: 0, 2500, 5000 PPM IN DIET, Tumor Site: Type of Lesion: LIVER: HEPATOCELLULAR ADENOMA) was “active; positive”, the carcinogen call (Species: MOUSE, Strain/Sex: B6C3F1/MALE, Route: ORAL, Dose: 0, 2500, 5000 PPM IN DIET, Dose: 0, 2500, 5000 PPM IN DIET) was “inactive; negative” and the carcinogen call (Species: RAT, Strain/Sex: F344/FEMALE, Route: ORAL, Dose: 0, 5000, 10000 PPM IN DIET, Dose: 0, 5000, 10000 PPM IN DIET) was “inactive; negative”. For the same compound, the carcinogen call (Species: RAT, Strain/Sex: F344/MALE, Route: ORAL, Dose: 0, 5000, 10000 PPM IN DIET, Dose: 0, 5000, 10000 PPM IN DIET, Tumor Site: Type of Lesion: LIVER: NEOPLASTIC NODULE) was “active; positive”.
With `Cc1ccc(Cl)cc1N` the carcinogen call (Species: MOUSE, Strain/Sex: B6C3F1/FEMALE, Route: ORAL, Dose: 0, 2000, 4000 PPM IN DIET, Dose: 0, 2000, 4000 PPM IN DIET, Tumor Site: Type of Lesion: BLOOD VESSELS: HEMANGIOSARCOMA, LIVER: HEPATOCELLULAR ADENOMA OR CARCINOMA) was “active; positive”, the carcinogen call (Species: MOUSE, Strain/Sex: B6C3F1/MALE, Route: ORAL, Dose: 0, 2000, 4000 PPM IN DIET, Dose: 0, 2000, 4000 PPM IN DIET, Tumor Site: Type of Lesion: BLOOD VESSELS: HEMANGIOSARCOMA, LIVER: HEPATOCELLULAR ADENOMA OR CARCINOMA) was “active; positive” and the carcinogen call (Species: RAT, Strain/Sex: F344/FEMALE, Route: ORAL, Dose: 0, 2500, 5000 PPM IN DIET, Dose: 0, 2500, 5000 PPM IN DIET) was “inactive; negative”. The carcinogen call (Species: RAT, Strain/Sex: F344/MALE, Route: ORAL, Dose: 0, 2500, 5000 PPM IN DIET, Dose: 0, 2500, 5000 PPM IN DIET) was “inactive; negative”.
For `O=[N+]([O-])c1ccc(Nc2ccc(Nc3ccccc3)c(S(=O)(=O)O)c2)c([N+](=O)[O-])c1`, the carcinogen call (Species: MOUSE, Strain/Sex: B6C3F1/FEMALE, Route: GAVAGE, Dose: 0, 250, 500 MG/KG IN CORN OIL 5D/WK FOR 103 WK (STUDY DURATION: 104 WK), Dose: 0, 250, 500 MG/KG IN CORN OIL 5D/WK FOR 103 WK (STUDY DURATION: 104 WK)) was “inactive; negative”, the carcinogen call (Species: MOUSE, Strain/Sex: B6C3F1/MALE, Route: GAVAGE, Dose: 0, 125, 250 MG/KG IN CORN OIL 5D/WK FOR 103 WK (STUDY DURATION: 104 WK), Dose: 0, 125, 250 MG/KG IN CORN OIL 5D/WK FOR 103 WK (STUDY DURATION: 104 WK)) was “inactive; negative” and the carcinogen call (Species: RAT, Strain/Sex: F344/FEMALE, Route: GAVAGE, Dose: 0, 375, 750 MG/KG IN CORN OIL 5D/WK FOR 103 WK (STUDY DURATION: 105 WK), Dose: 0, 375, 750 MG/KG IN CORN OIL 5D/WK FOR 103 WK (STUDY DURATION: 105 WK), Tumor Site: Type of Lesion: KIDNEY: TRANSITIONAL CELL CARCINOMA) was “active; positive”. The carcinogen call (Species: RAT, Strain/Sex: F344/MALE, Route: GAVAGE, Dose: 0, 375 MG/KG IN CORN OIL 5D/WK FOR 103 WK (STUDY DURATION: 104 WK)) was “inactive; negative”.
In the case of `ClC/C=C/CCl`, the carcinogen call (Species: RAT, Strain/Sex: CD/MALE, Route: INHALATION, Dose: 0, 0.1, 0.3, 1.0 PPM 6 HR/D 5 D/WK FOR 86 WK (STUDY DURATION: 86 WK), Dose: 0, 0.1, 0.3, 1.0 PPM 6 HR/D 5 D/WK FOR 86 WK (STUDY DURATION: 86 WK), Tumor Site: Type of Lesion: NASAL CAVITY: ADENOMA, ADENOCARCINOMA, CARCINOSARCOMA, MIXED CARCINOMA) is reported as “active; positive”, the carcinogen call (Species: Rat, Strain/Sex: CD BR/Female (140/group), Route: Inhalation, Dose: 0, 0.5 6 hr/d for 2 yr, 5 ppm 6 hr/d lowered to 2.5 ppm after 7 mo and continued an additional 5 mo with a 1-yr maintena, Dose: 0, 0.5 6 hr/d for 2 yr, 5 ppm 6 hr/d lowered to 2.5 ppm after 7 mo and continued an additional 5 mo with a 1-yr maintena, Tumor Site: Type of Lesion: Nasal Passages: Benign (0 (0%), 23 (18%), 5 (3.9%)) and malignant tumors (0 (0%), 2 (1.6%), 113 (88.3%))) is reported as “active; positive” and the carcinogen call (Species: Rat, Strain/Sex: CD BR/Male (140/group), Route: Inhalation, Dose: 0, 0.5 6 hr/d for 2 yr, 5 ppm 6 hr/d lowered to 2.5 ppm after 7 mo and continued an additional 5 mo with a 1-yr maintena, Dose: 0, 0.5 6 hr/d for 2 yr, 5 ppm 6 hr/d lowered to 2.5 ppm after 7 mo and continued an additional 5 mo with a 1-yr maintena, Tumor Site: Type of Lesion: Nasal Passages: Benign (0 (0%), 33 (25.4%), 2 (1.6%)) and malignant tumors (0 (0%), 11 (8.5%), 114 (88.4%))) is reported as “active; positive”.
For `COC(=O)C1=CCCN(N=O)C1`, the carcinogen call (Species: RAT, Strain/Sex: F344/MALE, Route: ORAL, Dose: 0, 20 PPM IN DRINKING WATER FOR DURATION OF STUDY (TOTAL DOSE: 0; 4.1 MMOL/KG) (STUDY DURATION: 128 WK), Dose: 0, 20 PPM IN DRINKING WATER FOR DURATION OF STUDY (TOTAL DOSE: 0; 4.1 MMOL/KG) (STUDY DURATION: 128 WK), Tumor Site: Type of Lesion: EXOCRINE PANCREAS: ACINAR ADENOMA) was “active; positive”.
